Read-outs that look alike come from different tables or passages of the source.
Key:
zfERβ1 [1] = molecular target: T1, zfERβ1 (Danio rerio, UniProt Q5PR29); details: for agonistic activity on zfERβ1 (in words): HELN-zfERβ1; for EC50: read-out: zfERβ1 EC50
zfERβ2 [2] = molecular target: T2, zfERβ2 (Danio rerio, UniProt Q7ZU32); details: for agonistic activity on zfERβ2 (in words): HELN-zfERβ2; for EC50: read-out: zfERβ2 EC50
zfERβ2 [3] = molecular target: T2, zfERβ2; test: HELN-zfERβ2 transcriptional inhibition; assay type: cell-based, zebrafish
zfERα [4] = molecular target: T3, zfERα (Danio rerio, UniProt P57717); test: HELN-zfERα transcriptional inhibition; assay type: cell-based, zebrafish
T3 sequence (P57717 1-569): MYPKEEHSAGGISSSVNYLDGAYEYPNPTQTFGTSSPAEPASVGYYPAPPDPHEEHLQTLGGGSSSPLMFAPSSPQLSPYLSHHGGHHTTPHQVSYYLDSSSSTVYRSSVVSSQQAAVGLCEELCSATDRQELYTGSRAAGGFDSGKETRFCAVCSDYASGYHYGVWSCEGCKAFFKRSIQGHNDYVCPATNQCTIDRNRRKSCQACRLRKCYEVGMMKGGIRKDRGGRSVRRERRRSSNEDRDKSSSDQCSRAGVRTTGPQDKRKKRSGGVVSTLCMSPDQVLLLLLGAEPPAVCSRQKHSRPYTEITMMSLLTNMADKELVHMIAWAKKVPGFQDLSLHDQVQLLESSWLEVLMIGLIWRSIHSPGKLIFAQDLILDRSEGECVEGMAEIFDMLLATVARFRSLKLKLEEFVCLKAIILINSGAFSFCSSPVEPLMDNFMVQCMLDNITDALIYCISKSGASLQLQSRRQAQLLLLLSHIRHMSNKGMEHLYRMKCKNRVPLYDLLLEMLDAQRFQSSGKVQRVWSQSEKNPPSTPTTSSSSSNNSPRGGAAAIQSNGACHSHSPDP

zfERα [5] = molecular target: T3, zfERα; test: HELN-zfERα luciferase transactivation assay; details: for potency profile among zfER subtypes: Supplementary Fig. 2A and data not shown
zfERβ1 [6] = molecular target: T1, zfERβ1; assay type: cell-based, zebrafish; details: HELN-zfERβ1
hERα = molecular target: T4, hERα (Homo sapiens, UniProt P03372); details: HELN-hERα compared to hERβ, ref Escande et al., 2006, cited from earlier work
T4 sequence (P03372 1-595): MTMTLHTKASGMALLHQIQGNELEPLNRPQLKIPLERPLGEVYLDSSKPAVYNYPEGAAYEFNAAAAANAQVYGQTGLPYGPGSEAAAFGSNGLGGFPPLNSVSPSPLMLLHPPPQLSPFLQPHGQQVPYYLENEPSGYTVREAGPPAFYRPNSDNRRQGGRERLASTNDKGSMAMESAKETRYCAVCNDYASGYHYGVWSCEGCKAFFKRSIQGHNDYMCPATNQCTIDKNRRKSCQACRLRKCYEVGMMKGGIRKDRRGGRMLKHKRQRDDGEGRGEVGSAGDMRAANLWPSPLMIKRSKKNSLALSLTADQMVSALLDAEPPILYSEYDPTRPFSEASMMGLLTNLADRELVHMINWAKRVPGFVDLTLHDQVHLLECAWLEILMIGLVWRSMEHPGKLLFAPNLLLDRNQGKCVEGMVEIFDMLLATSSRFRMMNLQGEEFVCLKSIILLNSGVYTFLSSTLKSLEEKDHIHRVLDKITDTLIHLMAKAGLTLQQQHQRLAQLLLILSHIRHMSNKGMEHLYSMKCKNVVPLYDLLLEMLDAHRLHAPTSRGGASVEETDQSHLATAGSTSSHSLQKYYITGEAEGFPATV

zfERα [7] = molecular target: T3, zfERα; details: zebrafish liver-derived cell lines; ref Cosnefroy et al. (2012); cited from earlier work
zfERβ2 [8] = molecular target: T2, zfERβ2; test: cell-based; details: zfERβ2 EC50, HELN-zfERβ2, 28 °C
zfERβ1 [9] = molecular target: T1, zfERβ1; test: cell-based; details: zfERβ1 EC50, HELN-zfERβ1, 28 °C
5×ERE:GFP reporter = details: 5×ERE:GFP zebrafish larvae, cited from earlier work; for tissue of GFP expression: ref Gorelik et al., 2014

## CC(C)(C)CC(C)(C)c1ccc(O)cc1 [4-Tert-octylphenol, 4-tert-octylphenol]
zfERβ1 [1]
  agonistic activity on zfERβ1 (in words): full agonists
zfERβ2 [2]
  agonistic activity on zfERβ2 (in words): partial agonists

## CCC(=C(c1ccc(O)cc1)c1ccc(OCCN(C)C)cc1)c1ccccc1 [4OH-tamoxifen, 1-[p-dimethylaminoethoxyphenyl]-1-(4-hydroxyphenyl)-2-phenyl-1-butene]
zfERβ2 [3]
  antagonistic activity on zfERβ2 (in words): full antagonistic activity
zfERβ1 [1]
  agonistic activity on zfERβ1 (in words): No agonistic activity
zfERα [4]
  antagonistic activity on zfERα (in words): full antagonistic activity
zfERα [5]
  agonistic activity on zfERα (in words): No agonistic activity
zfERβ2 [2]
  agonistic activity on zfERβ2 (in words): No agonistic activity
zfERβ1 [6]
  antagonistic activity on zfERβ1 (in words): full antagonistic activity

## C[C@]12CC[C@@H]3c4ccc(O)cc4CC[C@H]3[C@@H]1C[C@H]1OC(=O)C[C@]12O [16α-LE2, 3,17-Dihydroxy-19-nor-17α-pregna-1,3,5(10)-triene-21,16α-lactone]
zfERα [5]; transactivation, 28 °C
  fold higher potency zfERα compared to zfERβ1: approximately 429 fold
  fold higher potency zfERα compared to zfERβ2: ~115 fold
hERα
  fold potency/selectivity in reporter gene activation hERα over hERβ: over 1000 fold
hERα; listed as 16α-E2
  fold potency/selectivity in reporter gene activation hERα over hERβ: 1000 fold

## O=C(c1ccc(O)cc1O)c1ccc(O)cc1O [BP2, 2,2′,4,4′-tetrahydroxybenzophenone]
zfERβ1 [1]
  agonistic activity on zfERβ1 (in words): full agonist
zfERα [7]
  fold higher potency zfERα compared to zfERβ1: ~2 fold
  fold higher potency zfERα compared to zfERβ2: approximately 1.36 fold
zfERα [5]; HELN-zfERα
  agonistic activity on zfERα (in words): full agonist
zfERα [5]; transactivation, 28 °C
  fold higher potency zfERα compared to zfERβ1: 3 fold
zfERα [5]; zfERα EC50, HELN-zfERα, 28 °C
  EC50: ~251 nM
zfERβ2 [2]
  agonistic activity on zfERβ2 (in words): full agonist
zfERβ2 [2]; transactivation, 28 °C
  fold higher potency zfERβ2 compared to zfERβ1: 3 fold
zfERβ2 [8]
  EC50: ~233 nM
zfERβ1 [9]
  EC50: ~0.803 µM

## CC(C)(c1ccc(O)cc1)c1ccc(O)cc1 [BPA, bisphenol A]
zfERβ1 [1]
  agonistic activity on zfERβ1 (in words): partial agonist
zfERα [5]; HELN-zfERα
  agonistic activity on zfERα (in words): partial agonist
zfERβ2 [2]
  agonistic activity on zfERβ2 (in words): partial agonist
5×ERE:GFP reporter
  tissue of GFP expression: preferentially induced GFP expression in the heart valves
zfERβ1 [9]; text value in μM
  EC50: 1.89 µM

## N#CC(Cc1ccc(O)cc1)c1ccc(O)cc1 (centres unmarked) [DPN, 2,3-bis(4-hydroxyphenyl)-propionitrile]
5×ERE:GFP reporter
  tissue of GFP expression: preferentially induced GFP expression in the heart valves

## C[C@]12CC[C@@H]3c4ccc(O)cc4CC[C@H]3[C@@H]1CCC2=O [E1, 1,3,5[10]-estratriene-3-ol-17-one]
zfERβ2 [8]
  EC50: 12.1 nM

## C#C[C@]1(O)CC[C@H]2[C@@H]3CCc4cc(O)ccc4[C@H]3CC[C@@]21C [EE2, 17α-ethynyl-1,3,5[10]-estratriene-3,17β-diol]
zfERβ1 [1]; HELN-zfERβ1, 37 °C
  EC50: 0.673 nM
zfERα [5]; read-out: zfERα EC50, HELN-zfERα, 31 °C
  EC50: 0.127 nM
zfERα [5]; read-out: zfERα EC50, HELN-zfERα, 34 °C
  EC50: 0.19 nM
zfERα [5]; read-out: zfERα EC50, HELN-zfERα, 37 °C
  EC50: 0.947 nM
zfERβ2 [2]; HELN-zfERβ2, 28 °C
  EC50: ~0.031 nM
zfERβ2 [2]; HELN-zfERβ2, 37 °C
  EC50: ~0.197 nM

## O=c1c(-c2ccc(O)cc2)coc2cc(O)cc(O)c12 [Genistein, 40,5,7-trihydroxyisoflavone]
5×ERE:GFP reporter
  tissue of GFP expression: preferentially induced GFP expression in the heart valves

## C[C@]12CC[C@@H]3c4ccc(O)cc4C[C@@H](CCCCCCCCC[S+]([O-])CCCC(F)(F)C(F)(F)F)[C@H]3[C@@H]1CC[C@@H]2O (stereo partly drawn) [ICI 182,780, 7α,17β-[9[(4,4,5,5,5-pentafluoropentyl)sulfinyl]nonyl]estra-1,3,5(10)-triene-3,17-diol]
zfERβ2 [3]
  antagonistic activity on zfERβ2 (in words): full antagonistic activity
zfERβ1 [1]
  agonistic activity on zfERβ1 (in words): No agonistic activity
zfERα [4]
  antagonistic activity on zfERα (in words): full antagonistic activity
zfERα [4]; read-out: zfERα IC50, together with 1 nM E2, 28 °C
  IC50: 3 nM
zfERα [5]; HELN-zfERα
  agonistic activity on zfERα (in words): No agonistic activity
zfERβ2 [2]
  agonistic activity on zfERβ2 (in words): No agonistic activity
zfERβ1 [6]
  antagonistic activity on zfERβ1 (in words): full antagonistic activity
5×ERE:GFP reporter; ref Gorelik and Halpern., 2011
  effect on E2-induced fluorescence in liver: reduce the E2-induced fluorescence in liver

## O=C1C[C@@H](c2ccc(O)cc2)Oc2cc(O)ccc21 [Liquiritigenin, liquiritigenin]
zfERβ1 [1]
  agonistic activity on zfERβ1 (in words): did not activate zfERβ1 at all
zfERα [5]; read-out: zfERα EC50, HELN-zfERα, 28 °C
  EC50: 563 nM

## Cc1c(-c2ccc(O)cc2)nn(-c2ccc(O)cc2)c1-c1ccc(OCCN2CCCCC2)cc1.Cl.Cl [MPP, 1,3-bis (4-hydroxyphenyl)-4-methyl-5-[4-(2-piperidinylethoxy)phenol]-1H-pyrazole dihydrochloride]
zfERβ1 [6]
  antagonistic activity on zfERβ1 (in words): slight zfERβ1 selectivity

## C[C@H]1CCCC(=O)CCCCCc2cc(O)cc(O)c2C(=O)O1 [zearalanone]
zfERα [5]
  potency profile among zfER subtypes: zfERα potency > zfERβ1 potency ≥ β2 potency

## C[C@H]1CCCC(=O)CCC/C=C/c2cc(O)cc(O)c2C(=O)O1 [zearalenone]
zfERα [5]
  potency profile among zfER subtypes: zfERα potency > zfERβ1 potency ≥ β2 potency

## C[C@H]1CCC[C@H](O)CCCCCc2cc(O)cc(O)c2C(=O)O1 [α-Zearalanol, α-zearalanol]
zfERβ1 [1]; HELN-zfERβ1, 28 °C
  EC50: 0.71 nM

## C[C@H]1CCC[C@H](O)CCC/C=C/c2cc(O)cc(O)c2C(=O)O1 [α-Zearalenol, α-zearalenol]
zfERα [5]
  potency profile among zfER subtypes: zfERα potency > zfERβ1 potency ≥ β2 potency

## C[C@H]1CCC[C@@H](O)CCCCCc2cc(O)cc(O)c2C(=O)O1 [β-zearalanol]
zfERα [5]
  potency profile among zfER subtypes: zfERα potency > zfERβ1 potency ≥ β2 potency

## C[C@H]1CCC[C@@H](O)CCC/C=C/c2cc(O)cc(O)c2C(=O)O1 [β-zearalenol]
zfERα [5]
  potency profile among zfER subtypes: zfERα potency > zfERβ1 potency ≥ β2 potency
